The source of these data is EP0714884A1, “A method for the production of a basic amino acid” (Ajinomoto Co., Inc., priority 1994, dated 1996).

This series in a line: Filterability evaluation: time period required for filtration through a membrane filter. The note with it: for filterability: neutral to acidic pH, result in words; for Filtration period of aqueous solution: L-arginine 5g/dl, 30°C, 1.4 ℓ, 2 x 10⁵ Pa, Millipore 0.22 µmGS membrane filter. The format is physicochemical. How it is done:
The dried purified crystals were obtained by the three method described above were filtered under the condition shown below to compare the filterability. The pH was adjusted with 2N aqueous solution of HCl, and the filterability was evaluated by determining the time period required for the filtration.
The dried purified crystals obtained by the method described above were filtered under conditions similar to those in Example 1 to evaluate the filterability.

Take `N=C(N)NCCC[C@H](N)C(=O)O` [Conventional method, L-arginine]: the filterability result is on record as “extremely poor filterability”. In addition, the “Filtration period of aqueous solution” value (pH 3) is recorded as “Occlusion”. Besides, under “pH 5”, the “Filtration period of aqueous solution” value was 8000 s. Moreover, where the note is “pH 7”, the “Filtration period of aqueous solution” value amounted to 1510 s. Moreover, the “Filtration period of aqueous solution” value (pH 11) came out at 1010 s.
Taken in the same sequence, the figures for `N=C(N)NCCC[C@H](N)C(=O)O` [LR-O method, L-arginine] were “no deterioration of the filterability”, 920 s, 880 s, 910 s and 930 s.
`N=C(N)NCCC[C@H](N)C(=O)O` [Solution of purified crystals by LR-O method] [L-arginine]: the “Filtration period of aqueous solution” value by setting is: (pH 3) 914 s; (pH 5) 920 s; (pH 7) 918 s; (pH 11) 921 s.
Take `N=C(N)NCCC[C@H](N)C(=O)O` [UF method, L-arginine]: the filterability entry is “extremely poor filterability”. For the same compound, for the setting “pH 3”, the “Filtration period of aqueous solution” value was “Occlusion”. Further, the “Filtration period of aqueous solution” value (pH 5) came out at 2640 s. Also, the “Filtration period of aqueous solution” value (pH 7) was 1400 s. In addition, the “Filtration period of aqueous solution” value (pH 11) amounted to 850 s.
